Where “and” joins values, the source holds several entries; their conditions need not be identical. Equal values may be shown once.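 1) Cells in 96-well plates. 2) Compound, 48 h, 5 concentrations. 3) Linear interpolation between surrounding doses. 4) Unreached endpoint = highest concentration. The concentration for 50% growth inhibition is given as GI50. TGI: concentration producing complete growth inhibition.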

Some test systems named below: HS 578T breast; MDA-MB-435; SR leukemia; DU-145 prostate; SK-MEL-28 melanoma; M14 melanoma; U251 CNS; MALME-3M melanoma; T-47D breast; EKVX NSCLC.
Assay in all cases: NCI-60 cell line screen, 48 h

In the case of `O=C(Nc1cccc(-n2cc(-c3ccncc3)c(-c3cc(O)cc(Cl)c3)n2)c1)Nc1ccc(Cl)c(C(F)(F)F)c1`, the GI50 with HS 578T breast is 3.29 µM; in the test with MDA-MB-435, 1.78 µM; with SR leukemia, 2.01 µM; with DU-145 prostate, 3.27 µM; in the test on SK-MEL-28 melanoma it was 2.01 µM; in the test with M14 melanoma, 1.72 µM. In addition, the GI50 in the test with U251 CNS is 1.72 µM; in the test with MALME-3M melanoma it was 2.37 µM; in the test with T-47D breast, 2.44 µM. For the same molecule, the TGI in the test on HS 578T breast is greater than 100 µM; in the test on MDA-MB-435, 3.89 µM; with SR leukemia it was 5.18 µM; in the test with DU-145 prostate, 11.7 µM; in the test with SK-MEL-28 melanoma, 6.2 µM; with M14 melanoma it was 3.85 µM. The TGI in the test with U251 CNS amounted to 3.65 µM; with MALME-3M melanoma, 6.25 µM; in the test on T-47D breast, 9.27 µM.
Consider `CCOC(=O)c1cc2c(n1Cc1cccc(OC)c1)-c1oncc1CCC2`, for which the GI50 is 1.6 µM in the test on HS 578T breast; 0.153 µM in the test with MDA-MB-435; 0.301 µM in the test on SR leukemia; 2.46 µM with DU-145 prostate; 5.55 µM with SK-MEL-28 melanoma; 0.693 µM with M14 melanoma. The GI50 in the test on U251 CNS was 2.16 µM; in the test with MALME-3M melanoma, 0.695 µM; in the test on T-47D breast, 1.27 µM. For the same molecule, the TGI was 24.8 µM in the test with HS 578T breast; 0.456 µM in the test on MDA-MB-435; 26.8 µM in the test with SR leukemia; greater than 32.5 µM with DU-145 prostate; greater than 100 µM with SK-MEL-28 melanoma; greater than 100 µM in the test on M14 melanoma. The TGI in the test with U251 CNS, with MALME-3M melanoma and in the test on T-47D breast was greater than 100 µM throughout.
Consider `NC(=O)c1ccccc1Nc1ccc2nnc(-c3ccncc3)n2n1`, for which the GI50 in the test with HS 578T breast was 18.1 µM; in the test on MDA-MB-435 it was 7.1 µM; in the test with SR leukemia it was 2.83 µM; in the test on DU-145 prostate, 14.3 µM; in the test on SK-MEL-28 melanoma, 15.3 µM; in the test on M14 melanoma, 11.1 µM. Besides, the GI50 with U251 CNS was 7.4 µM; in the test on MALME-3M melanoma, 8.38 µM; in the test on T-47D breast, 4.69 µM. Further, the TGI with HS 578T breast amounted to 58.3 µM; in the test with MDA-MB-435, 26.9 µM; in the test on SR leukemia it was 14.6 µM; in the test with DU-145 prostate it was 27.3 µM; in the test on SK-MEL-28 melanoma, 29.8 µM; with M14 melanoma, 26.5 µM. For the same molecule, the values for the TGI with U251 CNS, in the test on MALME-3M melanoma and with T-47D breast were 20.6 µM, 22.5 µM and 20.3 µM, respectively.
Take `COc1cccc(C2=C(c3c(C)n(C)c4ccccc34)C(=O)NC2=O)c1`: the GI50 was 12.1 µM in the test on HS 578T breast; 7.33 µM with MDA-MB-435; 11.8 µM in the test on SR leukemia; greater than 25 µM in the test on DU-145 prostate; 24.9 µM with SK-MEL-28 melanoma; 21.1 µM in the test with M14 melanoma. The GI50 is greater than 25 µM in the test with U251 CNS, greater than 21.2 µM in the test on MALME-3M melanoma and 8.83 µM in the test with T-47D breast. Further, the TGI in the test with HS 578T breast, in the test on MDA-MB-435, in the test with SR leukemia, in the test with DU-145 prostate, with SK-MEL-28 melanoma and in the test on M14 melanoma was greater than 25 µM in each case. For the same molecule, the TGI in the test on U251 CNS, in the test on MALME-3M melanoma and with T-47D breast was greater than 25 µM in each case.
As to `Cc1cc(Cl)ccc1Nc1nc(C(F)(F)F)ccc1C(=O)N/N=C/c1ccc(Cl)cc1`, the GI50 in the test on HS 578T breast is 2.53 µM; in the test on MDA-MB-435 it was 1.42 µM; in the test on DU-145 prostate it was 2.56 µM; in the test with SK-MEL-28 melanoma it was 2.18 µM; with EKVX NSCLC it was 1.25 µM; in the test on M14 melanoma it was 2.34 µM. In addition, the GI50 in the test with U251 CNS was 2.07 µM; in the test on MALME-3M melanoma it was 2.02 µM; in the test on T-47D breast, 2.17 µM. Also, the TGI with HS 578T breast came out at 9.62 µM; with MDA-MB-435 it was 3.89 µM; in the test with DU-145 prostate, 13.1 µM; in the test with SK-MEL-28 melanoma, 12.7 µM; with EKVX NSCLC, 4.45 µM; in the test on M14 melanoma, 7.63 µM. Also, the TGI in the test with MALME-3M melanoma stood at 5.51 µM; in the test on T-47D breast, 9.26 µM.
Turning to `O=C(O)c1cc2ccc3ccccc3c2oc1=O`, the TGI with HS 578T breast, in the test with MDA-MB-435, in the test with SR leukemia, in the test on SK-MEL-28 melanoma, with EKVX NSCLC and in the test on M14 melanoma was greater than 100 µM each time. Further, the TGI in the test on U251 CNS, with MALME-3M melanoma and with T-47D breast was greater than 100 µM throughout.
Consider `O=c1cc(-c2ccccc2F)[nH]c2ccc(N3CCCC3)cc12`, for which the GI50 was less than 0.001 µM with HS 578T breast; less than 0.001 µM in the test with SR leukemia; less than 0.001 µM in the test with DU-145 prostate; 82.3 µM in the test on SK-MEL-28 melanoma; greater than 100 µM in the test on EKVX NSCLC; less than 0.001 µM in the test with M14 melanoma. In addition, the values for the GI50 in the test on U251 CNS and in the test with T-47D breast were less than 0.001 µM and greater than 100 µM, respectively. Further, the TGI with SK-MEL-28 melanoma, in the test with M14 melanoma, in the test on MALME-3M melanoma and in the test with T-47D breast was greater than 100 µM throughout.
For `COc1cc(Nc2c(C#N)cnc3cc(OCCCN4CCN(C)CC4)c(OC)cc23)c(Cl)cc1Cl`, the GI50 in the test on HS 578T breast was 1.6 µM; with MDA-MB-435, 1.97 µM; in the test on SR leukemia, 1.35 µM; in the test on DU-145 prostate, 1.19 µM; in the test with SK-MEL-28 melanoma, 2.13 µM; in the test with M14 melanoma it was 1.3 µM. Further, the GI50 in the test with U251 CNS was 3.1 µM; with MALME-3M melanoma, 1.83 µM; with T-47D breast, 3.1 µM. Moreover, the TGI in the test with HS 578T breast came out at 26 µM; in the test with MDA-MB-435, 5.36 µM; with SR leukemia, 4.51 µM; with DU-145 prostate it was 14.6 µM; in the test on SK-MEL-28 melanoma, 5.08 µM; in the test on M14 melanoma it was 3.03 µM. Further, the TGI stood at 8.37 µM in the test on U251 CNS, 3.67 µM in the test with MALME-3M melanoma and 18.2 µM with T-47D breast.
With `Cc1ccc(C(CC(=O)c2ccccc2)C2C(=O)NC(=O)NC2=O)cc1` (centres undefined), the GI50 with HS 578T breast, with MDA-MB-435, with DU-145 prostate, with SK-MEL-28 melanoma, in the test with EKVX NSCLC and in the test on M14 melanoma was greater than 100 µM each time. The GI50 with U251 CNS, in the test on MALME-3M melanoma and in the test with T-47D breast was greater than 100 µM each time. Further, the TGI in the test with HS 578T breast, in the test on MDA-MB-435, in the test with DU-145 prostate, in the test with SK-MEL-28 melanoma, in the test on EKVX NSCLC and with M14 melanoma was greater than 100 µM each time. For the same molecule, the TGI in the test on U251 CNS, with MALME-3M melanoma and in the test with T-47D breast was greater than 100 µM each time.
`CCN(Cc1ccc(F)cc1)c1ccc(CO)c(F)c1`: the GI50 in the test with HS 578T breast was 17.2 µM; in the test on MDA-MB-435 it was 22.8 µM; in the test with SR leukemia, 15.1 µM; in the test with DU-145 prostate, 23.5 µM; in the test on SK-MEL-28 melanoma, 32 µM; in the test with M14 melanoma, 20.4 µM. Moreover, the GI50 in the test with U251 CNS was 12.5 µM; in the test with MALME-3M melanoma it was 18.7 µM; in the test on T-47D breast, 1.35 µM. In addition, the TGI with HS 578T breast was greater than 75.5 µM; in the test on MDA-MB-435, greater than 72.4 µM; in the test with SR leukemia it was 45.1 µM; in the test on DU-145 prostate, greater than 100 µM; in the test with SK-MEL-28 melanoma, greater than 100 µM; in the test with M14 melanoma it was greater than 67.5 µM. In addition, the TGI with U251 CNS was greater than 63 µM; in the test with MALME-3M melanoma it was 43.9 µM; in the test with T-47D breast it was 8.31 µM.
For the molecule `COc1cc(NC(C)CCCN)c2ncccc2c1` (centres undefined), the TGI in the test on HS 578T breast is greater than 100 µM; with MDA-MB-435 it was greater than 100 µM; in the test on DU-145 prostate it was greater than 100 µM; in the test with SK-MEL-28 melanoma it was 47.5 µM and > 100 µM; in the test on EKVX NSCLC, greater than 100 µM; with M14 melanoma it was 34.5 µM and > 73.6 µM. For the same molecule, the TGI in the test with U251 CNS is greater than 100 µM; in the test on MALME-3M melanoma, 35.7 µM and 60.9 µM; in the test with T-47D breast, greater than 53.2 µM. The GI50 is 22.1 µM and 74 µM in the test with SK-MEL-28 melanoma; 16.8 µM and 43.1 µM in the test on M14 melanoma; 39 µM and 86.1 µM in the test with U251 CNS; 19.3 µM and 44.4 µM in the test on MALME-3M melanoma.
Consider `O=C(O)C1OC1(c1cccc(Cl)c1)c1ccccc1Cl` (centres undefined), for which the TGI with HS 578T breast is 52.4 µM; with MDA-MB-435, greater than 100 µM; in the test with DU-145 prostate it was 77.5 µM; with SK-MEL-28 melanoma, 61.3 µM; in the test on EKVX NSCLC it was 68.4 µM; with M14 melanoma, 42.2 µM. The TGI in the test on U251 CNS was 25.4 µM; in the test on MALME-3M melanoma, 49.9 µM; in the test with T-47D breast, greater than 100 µM.
`O=c1oc(Cl)c(Cl)c2ccccc12`: the GI50 in the test with HS 578T breast is 35.1 µM; with MDA-MB-435, 22.3 µM; in the test with DU-145 prostate it was 18.3 µM; with SK-MEL-28 melanoma, 46.5 µM; in the test on EKVX NSCLC it was 18.8 µM; in the test on M14 melanoma, 41.3 µM. Also, the results for the GI50 in the test on U251 CNS, in the test on MALME-3M melanoma and in the test on T-47D breast were 21.2 µM, 50 µM and 40.6 µM, respectively. The TGI is 96.2 µM in the test with HS 578T breast; 45.9 µM in the test on MDA-MB-435; 38.6 µM in the test on DU-145 prostate; greater than 100 µM in the test on SK-MEL-28 melanoma; 44.3 µM with EKVX NSCLC; greater than 100 µM in the test on M14 melanoma. The TGI in the test on U251 CNS is 52.1 µM; in the test on MALME-3M melanoma it was greater than 100 µM; in the test on T-47D breast, greater than 100 µM.

(Values after PubChem BioAssay (NCI).)
